How the values were obtained:
MCF7 = test: Cytotoxicity against human MCF7 cells assessed as reduction in cell growth incubated for 72 hrs by Calcein AM assay; assay type: functional, cell-based; conditions: MCF7, 72 h
MDA-MB-468 = test: Cytotoxicity against human MDA-MB-468 cells assessed as reduction in cell growth incubated for 72 hrs by Calcein AM assay; assay type: functional, cell-based; conditions: MDA-MB-468, 72 h
HeLa [1] = test: Cytotoxicity against human HeLa cells assessed as reduction in cell growth incubated for 72 hrs by Calcein AM assay; assay type: functional, cell-based
HCT-116 [2] = test: Cytotoxicity against human HCT-116 cells assessed as reduction in cell growth incubated for 72 hrs by Calcein AM assay; assay type: functional, cell-based; conditions: HCT-116, 72 h
HT-29 = test: Cytotoxicity against human HT-29 cells assessed as reduction in cell growth incubated for 72 hrs by Calcein AM assay; assay type: functional, cell-based; conditions: HT-29, 72 h
CCRF-CEM = test: Cytotoxicity against human CEM cells assessed as reduction in cell growth incubated for 72 hrs by Calcein AM assay; assay type: functional, cell-based
K562 = test: Cytotoxicity against human K562 cells assessed as reduction in cell growth incubated for 72 hrs by Calcein AM assay; assay type: functional, cell-based; conditions: K562, 72 h
G-361 = test: Cytotoxicity against human G-361 cells assessed as reduction in cell growth incubated for 72 hrs by Calcein AM assay; assay type: functional, cell-based; conditions: G-361, 72 h
RPMI-8226 = test: Cytotoxicity against human RPMI-8226 cells assessed as reduction in cell growth incubated for 72 hrs by Calcein AM assay; assay type: functional, cell-based; conditions: RPMI-8226, 72 h
U-266 = test: Cytotoxicity against human U-266 cells assessed as reduction in cell growth incubated for 72 hrs by Calcein AM assay; assay type: functional, cell-based; conditions: U-266, 72 h
HOS = test: Cytotoxicity against human HOS cells assessed as reduction in cell growth incubated for 72 hrs by Calcein AM assay; assay type: functional, cell-based
[3] = Cytotoxicity against human L02 cells assessed as inhibition of cell viability incubated for 72 hrs by MTT assay; assay type: toxicity, cell-based
MV4-11 = test: Antiproliferative activity against human MV4-11 cells assessed as cell growth inhibition incubated for 72 hrs by resazurin assay; assay type: functional
MDA-MB-453 = test: Antiproliferative activity against human MDA-MB-453 cells assessed as cell growth inhibition incubated for 72 hrs by MTT assay; assay type: functional
[4] = AUC in Wistar rat at 20 mg/kg,po and measured upto 24 hrs by LC/MS/MS analysis; assay type: ADME, organism-based; design: time < 24 hrs, dose 20 mg/kg, route po; conditions: in vivo
[5] = AUC in Balb/c mouse at 10 mg/kg,po and measured upto 24 hrs by LC/MS/MS analysis; assay type: ADME, organism-based; design: time < 24 hrs, dose 10 mg/kg, route po; conditions: in vivo
CDK2/Cyclin A2 = CDK2/Cyclin A2 (Homo sapiens, UniProt P24941); test: Inhibition of CDK2/cyclin A2 (unknown origin) expressed in baculovirus expression system incubated for 1 hr using Ser/Thr12 Peptide as substrate in presence of ATP by Z-LYTE kinase assay
HL-60 = test: Antiproliferative activity against human HL-60 cells assessed as reduction in cell viability incubated for 72 hrs by MTT assay; assay type: functional, cell-based; conditions: HL-60, 72 h
A549 [6] = test: Antiproliferative activity against human A549 cells assessed as reduction in cell viability incubated for 72 hrs by MTT assay; assay type: functional, cell-based; conditions: A549, 72 h
HCT-116 [7] = test: Antiproliferative activity against human HCT-116 cells assessed as reduction in cell viability incubated for 72 hrs by MTT assay; assay type: functional, cell-based; conditions: HCT-116, 72 h
[8] = molecular target: Protein cereblon/Cyclin-dependent kinase 4 (Homo sapiens, UniProt P11802+Q96SW2); test: Protac activity at CRBN/CDK4 in human MDA-MB-231 cells assessed as CDK4 degradation incubated for 18 hrs by Western blot analysis; assay type: cell-based
Sequence of Protein cereblon/Cyclin-dependent kinase 4 (P11802 whole entry): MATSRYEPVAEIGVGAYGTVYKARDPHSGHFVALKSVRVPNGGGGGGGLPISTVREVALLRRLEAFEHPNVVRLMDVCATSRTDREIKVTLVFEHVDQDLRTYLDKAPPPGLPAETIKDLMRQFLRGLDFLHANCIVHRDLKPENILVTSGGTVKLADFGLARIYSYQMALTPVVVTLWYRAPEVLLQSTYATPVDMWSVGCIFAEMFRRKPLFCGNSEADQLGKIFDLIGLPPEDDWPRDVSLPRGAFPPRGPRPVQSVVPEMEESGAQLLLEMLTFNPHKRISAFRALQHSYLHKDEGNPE
Sequence of Protein cereblon/Cyclin-dependent kinase 4 (Q96SW2 whole entry): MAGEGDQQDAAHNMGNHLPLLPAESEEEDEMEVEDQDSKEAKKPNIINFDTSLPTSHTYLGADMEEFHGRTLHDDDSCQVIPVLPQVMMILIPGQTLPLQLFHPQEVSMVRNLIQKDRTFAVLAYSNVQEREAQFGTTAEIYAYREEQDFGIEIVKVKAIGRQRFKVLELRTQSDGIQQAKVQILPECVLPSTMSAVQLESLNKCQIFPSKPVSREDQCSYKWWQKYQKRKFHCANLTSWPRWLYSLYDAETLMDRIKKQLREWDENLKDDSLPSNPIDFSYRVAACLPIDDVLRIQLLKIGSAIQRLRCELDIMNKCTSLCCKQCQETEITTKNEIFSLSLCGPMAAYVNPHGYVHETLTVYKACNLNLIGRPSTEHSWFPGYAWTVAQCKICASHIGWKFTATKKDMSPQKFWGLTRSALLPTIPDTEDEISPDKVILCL

[9] = molecular target: Protein cereblon/Cyclin-dependent kinase 6 (Homo sapiens, UniProt Q00534+Q96SW2); test: Protac activity at CRBN/CDK6 in human MDA-MB-231 cells assessed as CDK6 degradation incubated for 18 hrs by Western blot analysis; assay type: cell-based
Sequence of Protein cereblon/Cyclin-dependent kinase 6 (Q00534 whole entry): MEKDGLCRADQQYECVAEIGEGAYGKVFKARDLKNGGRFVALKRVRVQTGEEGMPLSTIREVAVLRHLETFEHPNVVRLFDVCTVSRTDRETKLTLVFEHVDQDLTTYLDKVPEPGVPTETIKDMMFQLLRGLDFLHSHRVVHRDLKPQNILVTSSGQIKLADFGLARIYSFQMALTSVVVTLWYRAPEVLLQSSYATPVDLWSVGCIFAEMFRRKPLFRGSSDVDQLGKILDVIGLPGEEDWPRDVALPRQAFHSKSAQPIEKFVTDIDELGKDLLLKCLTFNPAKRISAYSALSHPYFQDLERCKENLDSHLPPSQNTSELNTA
Sequence of Protein cereblon/Cyclin-dependent kinase 6 (Q96SW2 whole entry): as the sequence (Q96SW2 whole entry) above

[10] = molecular target: Cyclin-dependent kinase 4 (Homo sapiens, UniProt P11802); test: Inhibition of CDK4 (unknown origin) by kinase assay
Sequence of Cyclin-dependent kinase 4 (P11802 whole entry): as the sequence (P11802 whole entry) above

LS174T = test: Antitumor activity against human LS174T cells assessed as reduction in cell viability by MTT assay; assay type: functional, cell-based
A549 [11] = test: Antitumor activity against human A549 cells assessed as reduction in cell viability by MTT assay; assay type: functional, cell-based
HeLa [12] = test: Antitumor activity against human HeLa cells assessed as reduction in cell viability by MTT assay; assay type: functional, cell-based
Bel-7402 = test: Antitumor activity against human Bel-7402 cells assessed as reduction in cell viability by MTT assay; assay type: functional, cell-based
[13] = molecular target: Cyclin-dependent kinase 2 (Homo sapiens, UniProt P24941); test: Inhibition of CDK2 (unknown origin) incubated for 10 min using histone H1 as substrate in presence of gamma32P-ATP by radioactive assay
NCI-H522 = test: Cytotoxicity against human NCI-H522 cells assessed cell growth inhibition incubated for 2 days by MTT assay; assay type: functional, cell-based; conditions: NCI-H522, 48 h
[14] = Cytotoxicity against human U87 cells assessed cell growth inhibition incubated for 2 days by MTT assay; assay type: functional, cell-based, U-87MG ATCC; conditions: U-87 MG, 48 h
[15] = Cytotoxicity against human L02 cells assessed cell growth inhibition incubated for 2 days by MTT assay; assay type: toxicity, cell-based
[16] = molecular target: Cyclin-dependent kinase 9 (Homo sapiens, UniProt P50750); test: Inhibition of CDK9 (unknown origin) using TMB as substrate by spectrophotometric analysis
Sequence of Cyclin-dependent kinase 9 (P50750 whole entry): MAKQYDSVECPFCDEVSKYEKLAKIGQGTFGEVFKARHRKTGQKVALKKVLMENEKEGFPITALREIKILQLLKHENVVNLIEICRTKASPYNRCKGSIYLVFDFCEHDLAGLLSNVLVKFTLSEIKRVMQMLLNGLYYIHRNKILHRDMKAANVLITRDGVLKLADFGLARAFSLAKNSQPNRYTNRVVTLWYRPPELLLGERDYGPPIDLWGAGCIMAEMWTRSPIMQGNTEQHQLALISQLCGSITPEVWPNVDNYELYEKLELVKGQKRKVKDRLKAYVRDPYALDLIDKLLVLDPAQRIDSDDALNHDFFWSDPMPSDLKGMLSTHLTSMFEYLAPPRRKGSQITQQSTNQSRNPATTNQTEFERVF

## CC[C@H](CO)Nc1nc(NCc2ccccc2N)c2[nH]nc(C(C)C)c2n1
MCF7
  IC50: 5 µM
MDA-MB-468
  IC50: 5 µM
HeLa [1]
  IC50: 5 µM
HCT-116 [2]
  IC50: 5 µM
HT-29
  IC50: 5 µM
CCRF-CEM
  IC50: 5 µM
K562
  IC50: 5 µM
G-361
  IC50: 5 µM
RPMI-8226
  IC50: 5 µM
U-266
  IC50: 5 µM
HOS
  IC50: 5 µM

## O=C1CCC(N2C(=O)c3cccc(NC(=O)CCCCCCCn4cc(COc5c(O)cc(O)c6c(=O)cc(-c7ccccc7)oc56)nn4)c3C2=O)C(=O)N1 (configuration not stated)
[3]
  IC50 at 72 hrs: > 100 µM

## CNc1nc(C)c(-c2nc(Nc3ccc(N4CCC(N(C)C)CC4)cn3)ncc2F)s1
MV4-11
  GI50: 0.107 µM
MDA-MB-453
  GI50: 0.325 µM
[4]
  AUC at 24 h: 4.4 µM·h
[5]
  AUC at 24 h: 4.3 µM·h

## CCC(CO)Nc1nc(NCc2ccccn2)c2ncn(CC)c2c1[N+](=O)[O-] (configuration not stated)
CDK2/Cyclin A2
  IC50: 0.021 µM
HL-60
  IC50: 3.71 µM
A549 [6]
  IC50: 3.85 µM
HCT-116 [7]
  IC50: 1.56 µM

## CC(=O)c1c(C)c2cnc(Nc3ccc(N4CCN(Cc5cn(CCCCCC(=O)Nc6cccc7c6C(=O)N(C6CCC(=O)NC6=O)C7=O)nn5)CC4)cn3)nc2n(C2CCCC2)c1=O (configuration not stated)
[8]
  DC50: 0.02 µM
[9]
  DC50: 0.02 µM

## CN(Cc1ccccc1)C(=O)CCc1c[nH]c2ccccc12
[10]
  IC50: 10 µM
LS174T
  IC50: 11 µM
A549 [11]
  IC50: 16 µM
HeLa [12]
  IC50: 25 µM
Bel-7402
  IC50: 14 µM

## Nc1c([N+](=O)[O-])cnc(NC2CCCCC2)c1[N+](=O)[O-]
[13]
  IC50: 1.8 µM
NCI-H522
  IC50: 2.89 µM
[14]
  IC50: 3.19 µM
[15]
  IC50 at 2 days: 86.7 µM

## O=C1N=NC(=O)/C(=C\Nc2ccc(-c3nc4ncccc4[nH]3)cc2)C(=O)N1
[16]
  IC50: 0.5 µM

From ChEMBL document CHEMBL5230096, “A comprehensive insight on the recent development of Cyclic Dependent Kinase inhibitors as anticancer agents” (Eur J Med Chem, 2020)
